Assay: xn = mol fraction of the nth substance listed
Details: 100 kPa

CC(=O)[O-].COCCn1cc[n+](C)c1 + O
Details	electrical conductivity [S/m]	viscosity [mPa·s]
288.15 K, x1 = 0.8396	0.351	74.3
288.15 K, x1 = 0.8663	0.313	76.6
288.15 K, x1 = 0.8945	0.278	78.6
288.15 K, x1 = 0.9225	0.244	80.4
288.15 K, x1 = 0.9511	0.215	82.1
288.15 K, x1 = 1	0.162	85.1
293.15 K, x1 = 0.8663	0.373	56.95
293.15 K, x1 = 0.9225	0.3	60.54
293.15 K, x1 = 0.9511	0.268	62.23
293.15 K, x1 = 1	0.215	65.09
298.15 K, x1 = 0.8396	0.476	41.38
298.15 K, x1 = 0.8663	0.437	43.06
298.15 K, x1 = 0.8945	0.405	44.51
298.15 K, x1 = 0.9225	0.371	45.75
298.15 K, x1 = 0.9511	0.342	46.93
298.15 K, x1 = 1	0.29	49.12
303.15 K, x1 = 0.8396	0.564	28.47
303.15 K, x1 = 0.8663	0.529	–
303.15 K, x1 = 0.9225	0.466	34.3
303.15 K, x1 = 0.9511	0.439	35.83
303.15 K, x1 = 1	0.39	38.77
308.15 K, x1 = 0.8396	0.673	24.95
308.15 K, x1 = 0.8945	0.604	26.78
308.15 K, x1 = 0.9225	0.572	27.6
308.15 K, x1 = 0.9511	0.541	28.32
308.15 K, x1 = 1	0.491	29.64
313.15 K, x1 = 0.8396	0.807	20.97
313.15 K, x1 = 0.8663	0.773	21.65
313.15 K, x1 = 0.8945	0.733	22.3
313.15 K, x1 = 0.9225	0.698	22.87
313.15 K, x1 = 0.9511	0.666	23.4
313.15 K, x1 = 1	0.611	24.35
318.15 K, x1 = 0.8396	0.963	17.28
318.15 K, x1 = 0.8945	0.886	18.26
318.15 K, x1 = 0.9225	0.851	18.74
318.15 K, x1 = 0.9511	0.814	19.18
318.15 K, x1 = 1	0.759	19.91

CCC(=O)[O-].COCCn1cc[n+](C)c1 + O
Details	electrical conductivity [S/m]	viscosity [mPa·s]
288.15 K, x1 = 0.8582	0.278	88.4
288.15 K, x1 = 0.9175	0.201	104.5
288.15 K, x1 = 0.9479	0.169	113.9
293.15 K, x1 = 0.8302	0.362	61.46
293.15 K, x1 = 0.8582	0.324	66.3
293.15 K, x1 = 0.8879	0.289	72.1
293.15 K, x1 = 0.9175	0.254	78.1
293.15 K, x1 = 1	0.166	93.3
298.15 K, x1 = 0.8582	0.387	50.5
298.15 K, x1 = 0.8879	0.352	54.67
298.15 K, x1 = 0.9175	0.315	59.23
303.15 K, x1 = 0.8302	0.523	37.29
303.15 K, x1 = 0.8879	0.448	42.96
303.15 K, x1 = 0.9175	0.411	46.22
303.15 K, x1 = 0.9479	0.378	49.63
303.15 K, x1 = 1	0.32	54.2
308.15 K, x1 = 0.8302	0.625	29.69
308.15 K, x1 = 0.8582	0.584	31.71
308.15 K, x1 = 0.8879	0.548	33.88
308.15 K, x1 = 0.9175	0.511	36.42
308.15 K, x1 = 0.9479	0.479	39.09
308.15 K, x1 = 1	0.42	42.49
313.15 K, x1 = 0.8302	0.724	24.42
313.15 K, x1 = 0.8582	0.687	25.86
313.15 K, x1 = 0.8879	0.653	27.57
313.15 K, x1 = 0.9175	0.616	29.53
313.15 K, x1 = 1	0.532	33.96
318.15 K, x1 = 0.8302	0.881	18.8
318.15 K, x1 = 0.8879	0.799	21.28
318.15 K, x1 = 0.9175	0.759	22.93
318.15 K, x1 = 1	0.663	26.51

— a compilation of properties of binary mixtures (doi:10.1016/j.molliq.2021.118200)
